Results published in US20240368605A1, “USE OF SPLICE SWITCHING OLIGONUCLEOTIDES FOR EXON SKIPPING-MEDIATED KNOCKDOWN OF PIM2” (INSTITUT NATIONAL DE LA SANTÉ ET DE LA RECHERCHE MÉDICALE, priority 2021, published 2024).

Experiments:
Assay type in all cases: cell-based, human
PBs = test: Mitochondria/Caspase 3-driven apoptosis and viability of PBs; conditions: PBs
Excerpt: Mitochondrial-driven cell death is activated once the mitochondria lose the ability to maintain the inner membrane potential, resulting in the release of proapoptotic proteins into the cytosol. Commitment towards PBs is sustained by an extensive reconfiguration of the epigenetic landscape and of gene expression patterns, both showing that the most prominent function involves cell death and survival (Caron et al., 2015). […] We then investigated the different cell subsets generated through the differentiation model at the protein level for factors involved in apoptosis triggered by mitochondria (data not shown). The PBs compared to all other subsets increased the expression of pBAD and XIAP, both proteins counteract the apoptotic pathway and were described in PIM2-induced survival effect (data not shown) (Fox, 2003; Macdonald et al., 2006; Yan et al., 2003). In accordance with this finding and despite a strong increase in procaspase 3 protein (32 kDa size), PBs decrease the autocatalytic activity of Caspase 3 and therefore the production of p19/p17 apoptosis executors as highlighted by the low levels of cleaved PARP (data not shown) (Ponder and Boise, 2019). […] In addition, we found in P2/CD23+ cells a complete degradation of PARP which illustrate the fact that the apoptosis process is consubstantially associated with the B cell terminal differentiation if cells are not otherwise protected (data not shown).
We then inhibited PIM2 which led to an intense activation of Caspase 3 and a decrease of viability of PBs. The latter was rescued by the Caspase 3 inhibitor Q-DEVD-OPH (data not shown).
The differentiation of immature monocytes is associated with a relocalization of nuclear p21^Cip1/WAF1 to the cytoplasm where the protein participates to apoptosis blockage (Asada, 1999). In addition, Suzuki et al. ascribed the formation of a Procaspase 3/p21^Cip1/WAF1 complex in the context of resistance to Fas-mediated cell death owing to the phosphorylation of p21 by protein kinase A (Suzuki et al., 2000). We wanted therefore to explore whether p21^Cip1/WAF1 may bind Procaspase 3 and developed to this end a FRET approach which detected a signal of energy transfer compatible with such physical interaction. […] We then confirmed the binding between p21^Cip1/WAF1 and Caspase 3 in XG21 cells and in PBs by IP (data not shown). Finally, to confirm the anti-apoptotic role of cytoplasmic p21^Cip1/WAF1 in PBs we inhibited p21^Cip1/WAF1 expression by a siRNA targeting CDKN1A in in vitro D4 B cells (data not shown) and found an activation of the execution of apoptosis characterized by the detection of the p17-fragment cleavage of caspase 3 in parallel to the cleavage of PARP (data not shown) and similar results were found in XG21 cells (data not shown). […] The role of PIM2 is to stabilize p21^Cip1/WAF1 protein in the cytoplasm allowing therefore the formation a multiprotein complex which inhibits Caspase 3 full activation (data not shown).

PIM1 = PIM1 expression after SSO-PIM2 treatment; conditions: 2 μM
plasmablasts (PB) = test: Generation of plasmablasts at D6 in the in vitro B cell differentiation model (flow cytometry); conditions: SSO at 2 μM added at D4
Method: FIG. 1. Specific PIM2 inhibition affects the generation of plasmablasts • A. Diagram explaining SSO-PIM2 action. It binds to the second exon of the gene PIM2 leading in a skip of this exon during transcription and finally results to a frame shift and created an early stop-codon during translation. The protein is so a non-functional truncated protein. • B. Activated B cells were treated at D4 with an increasing dose of SSO-PIM2 and SSO-CTL (control condition) and recovered 48 hours later (at D6). PIM2 mRNA residual expression compared to the control condition adjust at 100% (mean±SD, n=3) and agarose gel of PIM2 PCR, showing exon skipping. • C. At D4, activated B cells were treated with SSO-PIM2 and SSO-CTL (control condition) at 2 μM. CD23+ aBC and PB were sorted at D6. PIM2 mRNA relative expression (mean±SD, n=4) (left) and PIM2 protein expression by western blot (middle) and immunofluorescence (right) after PIM2 inhibition. • D-E. Decrease of PB generation after PIM2 inhibition. Cells were treated with SSO-PIM2 at 2 μM (D) or increase dose of the PIM inhibitor AZD1208 (PIMi as indicated, in μM) (E) and their control condition (SSO-CTL and DMSO respectively). The untreated condition is referred as “NT” (=no treatment). Left: Absolute number of PB obtained at D6 after PIM2 inhibition. […] Right: Proportion of PB evaluated at D6 by flow cytometry after treatment with SSO-PIM2 at 2 μM. […]

5′-CCTCATGACGGATACCTGGAGTC-3′ (all phosphorodiamidate morpholino (PMO)) [SSO-PIM2]
cleaved PARP protein (PBs): production of cleaved PARP protein | mitochondrial depolarization (PBs): strong mitochondrial depolarization | pBAD and XIAP protein (PBs): decrease of pBAD and XIAP | effect on PIM1 expression (PIM1): without affecting PIM1 expression | generated PB at D6 (plasmablasts (PB)): severe decrease in generated PB
